Series [1] has as its target T1, Sodium channel protein type 10 subunit alpha (Homo sapiens, UniProt Q9Y5Y9). Briefly: Inhibition of Nav1.8 (unknown origin) at 10 uM by Ionflux high-throughput automated patch method.
Target sequence in this assay (Q9Y5Y9 whole entry, looked up): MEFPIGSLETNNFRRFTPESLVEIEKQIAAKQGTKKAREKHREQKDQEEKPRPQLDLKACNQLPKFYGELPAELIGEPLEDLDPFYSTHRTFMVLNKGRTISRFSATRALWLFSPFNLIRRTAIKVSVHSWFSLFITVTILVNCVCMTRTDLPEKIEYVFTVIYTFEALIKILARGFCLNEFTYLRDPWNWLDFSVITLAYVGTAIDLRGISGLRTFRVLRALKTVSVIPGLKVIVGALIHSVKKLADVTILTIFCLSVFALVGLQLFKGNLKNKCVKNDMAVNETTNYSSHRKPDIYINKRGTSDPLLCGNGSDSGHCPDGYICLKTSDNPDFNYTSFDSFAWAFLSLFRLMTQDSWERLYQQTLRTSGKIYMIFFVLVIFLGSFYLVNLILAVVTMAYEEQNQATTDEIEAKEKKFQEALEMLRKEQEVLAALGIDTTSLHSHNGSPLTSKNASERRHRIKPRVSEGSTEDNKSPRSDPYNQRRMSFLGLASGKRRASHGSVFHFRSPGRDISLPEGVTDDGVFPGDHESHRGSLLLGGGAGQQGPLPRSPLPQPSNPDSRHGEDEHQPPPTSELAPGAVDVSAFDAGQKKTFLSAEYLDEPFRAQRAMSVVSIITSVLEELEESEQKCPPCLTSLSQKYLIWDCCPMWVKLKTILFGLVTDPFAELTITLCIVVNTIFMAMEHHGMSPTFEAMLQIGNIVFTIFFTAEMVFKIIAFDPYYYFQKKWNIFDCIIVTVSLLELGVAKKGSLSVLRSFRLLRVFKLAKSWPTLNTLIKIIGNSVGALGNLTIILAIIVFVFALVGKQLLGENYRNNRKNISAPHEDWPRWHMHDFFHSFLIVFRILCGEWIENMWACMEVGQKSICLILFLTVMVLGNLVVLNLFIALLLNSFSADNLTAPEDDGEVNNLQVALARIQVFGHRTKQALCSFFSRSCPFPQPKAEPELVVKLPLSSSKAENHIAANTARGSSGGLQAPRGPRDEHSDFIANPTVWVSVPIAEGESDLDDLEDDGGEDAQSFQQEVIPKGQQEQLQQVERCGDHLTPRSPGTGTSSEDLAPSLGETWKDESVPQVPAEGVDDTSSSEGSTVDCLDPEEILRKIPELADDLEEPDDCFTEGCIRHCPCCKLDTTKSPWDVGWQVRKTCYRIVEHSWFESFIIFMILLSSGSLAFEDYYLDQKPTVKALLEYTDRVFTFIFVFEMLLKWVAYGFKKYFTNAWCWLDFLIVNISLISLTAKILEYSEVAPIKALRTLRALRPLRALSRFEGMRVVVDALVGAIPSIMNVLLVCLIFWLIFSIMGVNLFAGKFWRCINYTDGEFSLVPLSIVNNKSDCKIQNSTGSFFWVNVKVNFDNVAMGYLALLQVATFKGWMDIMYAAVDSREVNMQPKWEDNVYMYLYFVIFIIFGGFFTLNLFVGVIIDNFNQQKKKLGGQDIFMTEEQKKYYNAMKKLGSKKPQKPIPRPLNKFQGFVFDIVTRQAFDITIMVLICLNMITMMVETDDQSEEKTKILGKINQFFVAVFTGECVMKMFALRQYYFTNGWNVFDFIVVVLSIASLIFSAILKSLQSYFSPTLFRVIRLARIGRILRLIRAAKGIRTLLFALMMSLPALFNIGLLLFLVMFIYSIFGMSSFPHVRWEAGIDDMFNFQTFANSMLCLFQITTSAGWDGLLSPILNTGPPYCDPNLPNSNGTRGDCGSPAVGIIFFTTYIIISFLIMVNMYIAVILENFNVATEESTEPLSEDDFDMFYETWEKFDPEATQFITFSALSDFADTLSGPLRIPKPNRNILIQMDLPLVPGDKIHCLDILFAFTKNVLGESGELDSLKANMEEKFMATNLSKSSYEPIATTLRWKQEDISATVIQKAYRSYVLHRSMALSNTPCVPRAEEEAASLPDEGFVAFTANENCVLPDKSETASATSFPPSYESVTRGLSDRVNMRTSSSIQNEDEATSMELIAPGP
Series [2] in a line: Kinetic solubility of the compound in pH 7.4 phosphate buffered saline measured after 2 hrs by LC/MS analysis. It is filed as physicochemical. The settings on record: read-out: Kinetic_solubility.
In series [3] the target is T1, Sodium channel protein type 10 subunit alpha. The experiment in a line: Inhibition of Nav1.8 (unknown origin) over expressed in HEK cells assessed as reduction in deltamethrin-stimulated channel activation by FLIPR assay. It is filed as cell-based.
Target sequence in this assay (Q9Y5Y9 whole entry): as the sequence (Q9Y5Y9 whole entry, looked up) above
Series [4] is described as follows: Oral bioavailability in dog at 10 mg/kg. It is filed as ADME, organism-based, Canis lupus familiaris. The settings on record: in vivo.
The target in series [5] is T1, Sodium channel protein type 10 subunit alpha. Briefly: Inhibition of human Nav1.8 with resting membrane potential at half inactivated state by PatchXpress high-throughput electrophysiology method.
Target sequence in this assay (Q9Y5Y9 whole entry): as the sequence (Q9Y5Y9 whole entry, looked up) above
A short description of series [6]: Stability in human liver microsomes assessed as parent compound remaining measured after 60 mins. Format: ADME, Microsome. The settings on record: read-out: Stability.
The nature of series [7]: Oral bioavailability in rat at 10 mg/kg. Format: ADME, organism-based. Conditions: in vivo.
The target in series [8] is Nav1.7 (sodium channel protein type 9 subunit alpha) (Homo sapiens, UniProt Q15858). The experiment in a line: Inhibition of Nav1.7 (unknown origin) at 30 uM relative to control. Format: toxicity.
Series [9] concerns the target Nav1.5 (sodium channel protein type 5 subunit alpha) (Homo sapiens, UniProt Q14524). Briefly: Inhibition of Nav1.5 (unknown origin) at 30 uM relative to control. It is filed as toxicity.
Series [10] can be described thus: Oral bioavailability in cynomolgus monkey at 10 mg/kg. Conditions: in vivo. It is filed as ADME, organism-based, Macaca fascicularis.
Series [11] deals with Voltage-gated inwardly rectifying potassium channel KCNH2 (Homo sapiens, UniProt Q12809). The experiment in a line: Inhibition of human ERG. Format: toxicity.
Series [12] concerns the target T1, Sodium channel protein type 10 subunit alpha. Briefly: Inhibition of human Nav1.8 with resting membrane potential by PatchXpress high-throughput electrophysiology method.
Target sequence in this assay (Q9Y5Y9 whole entry): as the sequence (Q9Y5Y9 whole entry, looked up) above
For series [13] the target is unchanged. The experiment in a line: Inhibition of Nav1.8 (unknown origin) over expressed in HEK cells exposed to 120th depolarizing pulse at 10 Hz train of action potential at 35 nM. Format: cell-based.
Target sequence in this assay (Q9Y5Y9 whole entry, looked up): as above
Series [14] deals with Nav1.2 (sodium channel protein type 2 subunit alpha) (Homo sapiens, UniProt Q99250). The experiment in a line: Inhibition of Nav1.2 (unknown origin) at 30 uM relative to control. Format: toxicity.
The target in the next series is Cytochrome P450 3A4 (Homo sapiens, UniProt P08684). The experiment in a line: Inhibition of CYP3A4 (unknown origin). Format: ADME.
Another series has as its target T2, Cytochrome P450 1A2 (Homo sapiens, UniProt P05177).
T2 sequence (P05177 whole entry): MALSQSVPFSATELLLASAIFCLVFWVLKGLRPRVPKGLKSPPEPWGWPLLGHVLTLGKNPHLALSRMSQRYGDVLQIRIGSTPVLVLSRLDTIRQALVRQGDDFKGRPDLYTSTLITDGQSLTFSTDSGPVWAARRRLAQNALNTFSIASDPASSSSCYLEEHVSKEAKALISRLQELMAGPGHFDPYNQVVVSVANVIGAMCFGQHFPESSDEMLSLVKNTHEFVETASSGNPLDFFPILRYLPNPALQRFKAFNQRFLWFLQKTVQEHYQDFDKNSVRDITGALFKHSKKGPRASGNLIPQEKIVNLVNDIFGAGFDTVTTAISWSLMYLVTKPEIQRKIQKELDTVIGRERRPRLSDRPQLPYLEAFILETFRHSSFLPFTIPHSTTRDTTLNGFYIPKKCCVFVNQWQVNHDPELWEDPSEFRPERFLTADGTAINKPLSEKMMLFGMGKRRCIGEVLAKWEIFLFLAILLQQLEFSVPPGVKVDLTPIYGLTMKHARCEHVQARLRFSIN
Briefly: Inhibition of CYP1A2 (unknown origin). It is filed as ADME.

A short description of series [15]: Inhibition of Nav1.5 (domain 1 and 2)-Nav 1.8 (domain 3 and 4) chimera (unknown origin) with resting membrane potential at half inactivated state by PatchXpress high-throughput electrophysiology method. Set-up: species or system Homo sapiens.
A short description of series [16]: Volume of distribution at steady state in rat at 1 mg/kg, iv. It is filed as ADME, organism-based. The settings on record: in vivo, read-out: Vdss.
Series [17] is described as follows: Ratio of drug level in rat brain to plasma at 1 mg/kg, iv measured after 60 mins. It is filed as ADME, organism-based. The settings on record: read-out: BPR.
Series [18] can be described thus: Volume of distribution at steady state in cynomolgus monkey at 1 mg/kg, iv. Conditions: in vivo, read-out: Vdss. It is filed as ADME, organism-based, Macaca fascicularis.
The target in series [19] is Nav1.1 (sodium channel protein type 1 subunit alpha) (Homo sapiens, UniProt P35498). Briefly: Inhibition of Nav1.1 (unknown origin) at 30 uM relative to control. It is filed as toxicity.
The nature of series [20]: Protein binding in human plasma assessed as unbound fraction. It is filed as ADME, cell-free.
Series [21] can be described thus: Clearance in cynomolgus monkey at 1 mg/kg. It is filed as ADME, organism-based, Macaca fascicularis. The settings on record: in vivo.
The target in series [22] is Nav1.6 (sodium channel protein type 8 subunit alpha) (Homo sapiens, UniProt Q9UQD0). The experiment in a line: Inhibition of Nav1.6 (unknown origin) at 30 uM relative to control. Format: toxicity.
Series [23] addresses Sodium channel protein type 10 subunit alpha (Mus musculus, UniProt Q6QIY3). The experiment in a line: Inhibition of mouse Nav1.8 with resting membrane potential at half inactivated state by PatchXpress high-throughput electrophysiology method.
The nature of series [24]: Apparent permeability in MDCK-MDR1 cells. It is filed as ADME, cell-based, Canis lupus familiaris. The settings on record: dog.
Series [25] in a line: Clearance in dog at 1 mg/kg. Format: ADME, organism-based, Canis lupus familiaris. The settings on record: in vivo.
Series [26] can be described thus: Volume of distribution at steady state in dog at 1 mg/kg, iv. Format: ADME, organism-based, Canis lupus familiaris. The settings on record: in vivo, read-out: Vdss.
Series [27] concerns the target T1, Sodium channel protein type 10 subunit alpha. Briefly: Inhibition of Nav1.8 (unknown origin) over expressed in HEK cells exposed to 1st depolarizing pulse at 10 Hz train of action potential at 35 nM. Format: cell-based.
Target sequence in this assay (Q9Y5Y9 whole entry, looked up): as the sequence (Q9Y5Y9 whole entry, looked up) above
The target in series [28] is Nav1.3 (sodium channel protein type 3 subunit alpha) (Homo sapiens, UniProt Q9NY46). Briefly: Inhibition of Nav1.3 (unknown origin) at 30 uM relative to control. It is filed as toxicity.
Series [29] in a line: Inhibition of Nav1.8 (domain 1 and 2)-Nav 1.5 (domain 3 and 4) chimera (unknown origin) with resting membrane potential at half inactivated state by PatchXpress high-throughput electrophysiology method. Set-up: species or system Homo sapiens.
For series [30], the target named is Nav1.4 (sodium channel protein type 4 subunit alpha) (Homo sapiens, UniProt P35499). The experiment in a line: Inhibition of Nav1.4 (unknown origin) at 30 uM relative to control. It is filed as toxicity.
Series [31] in a line: Efflux ratio of apparent permeability in MDCK-MDR1 cells. It is filed as ADME, cell-based, Canis lupus familiaris. Conditions: dog.
Series [32] in a line: Clearance in rat at 1 mg/kg. The settings on record: in vivo. It is filed as ADME, organism-based.
Series [33] can be described thus: Genotoxicity in Salmonella typhimurium by Ames test. It is filed as toxicity. The settings on record: salmonella enterica subsp. enterica serovar typhimurium. In general terms: In the Ames test, an excess of revertant colonies over the control signals mutagenicity.

Broadly, the inhibition is the share of the control response that was lost under treatment. The IC50 is the concentration needed to halve the response being measured. One may read the bioavailability as dose-corrected exposure relative to a reference, in per cent. For orientation: fraction unbound means free concentration divided by total concentration. For orientation: clearance means the rate of elimination divided by the concentration. A word on the Papp: it is the rate of passage across a membrane or cell layer, normalised by area and donor concentration. Usually efflux ratio stands for a quotient of directional permeabilities that is used to spot active efflux.

The structures appear in SMILES notation. Converted amounts (≈) assume the structure as drawn. The source made the active and inactive calls. No cut-off for these calls is given here.

Sequence of Sodium channel protein type 10 subunit alpha (Mus musculus, UniProt Q6QIY3) (Q6QIY3 whole entry): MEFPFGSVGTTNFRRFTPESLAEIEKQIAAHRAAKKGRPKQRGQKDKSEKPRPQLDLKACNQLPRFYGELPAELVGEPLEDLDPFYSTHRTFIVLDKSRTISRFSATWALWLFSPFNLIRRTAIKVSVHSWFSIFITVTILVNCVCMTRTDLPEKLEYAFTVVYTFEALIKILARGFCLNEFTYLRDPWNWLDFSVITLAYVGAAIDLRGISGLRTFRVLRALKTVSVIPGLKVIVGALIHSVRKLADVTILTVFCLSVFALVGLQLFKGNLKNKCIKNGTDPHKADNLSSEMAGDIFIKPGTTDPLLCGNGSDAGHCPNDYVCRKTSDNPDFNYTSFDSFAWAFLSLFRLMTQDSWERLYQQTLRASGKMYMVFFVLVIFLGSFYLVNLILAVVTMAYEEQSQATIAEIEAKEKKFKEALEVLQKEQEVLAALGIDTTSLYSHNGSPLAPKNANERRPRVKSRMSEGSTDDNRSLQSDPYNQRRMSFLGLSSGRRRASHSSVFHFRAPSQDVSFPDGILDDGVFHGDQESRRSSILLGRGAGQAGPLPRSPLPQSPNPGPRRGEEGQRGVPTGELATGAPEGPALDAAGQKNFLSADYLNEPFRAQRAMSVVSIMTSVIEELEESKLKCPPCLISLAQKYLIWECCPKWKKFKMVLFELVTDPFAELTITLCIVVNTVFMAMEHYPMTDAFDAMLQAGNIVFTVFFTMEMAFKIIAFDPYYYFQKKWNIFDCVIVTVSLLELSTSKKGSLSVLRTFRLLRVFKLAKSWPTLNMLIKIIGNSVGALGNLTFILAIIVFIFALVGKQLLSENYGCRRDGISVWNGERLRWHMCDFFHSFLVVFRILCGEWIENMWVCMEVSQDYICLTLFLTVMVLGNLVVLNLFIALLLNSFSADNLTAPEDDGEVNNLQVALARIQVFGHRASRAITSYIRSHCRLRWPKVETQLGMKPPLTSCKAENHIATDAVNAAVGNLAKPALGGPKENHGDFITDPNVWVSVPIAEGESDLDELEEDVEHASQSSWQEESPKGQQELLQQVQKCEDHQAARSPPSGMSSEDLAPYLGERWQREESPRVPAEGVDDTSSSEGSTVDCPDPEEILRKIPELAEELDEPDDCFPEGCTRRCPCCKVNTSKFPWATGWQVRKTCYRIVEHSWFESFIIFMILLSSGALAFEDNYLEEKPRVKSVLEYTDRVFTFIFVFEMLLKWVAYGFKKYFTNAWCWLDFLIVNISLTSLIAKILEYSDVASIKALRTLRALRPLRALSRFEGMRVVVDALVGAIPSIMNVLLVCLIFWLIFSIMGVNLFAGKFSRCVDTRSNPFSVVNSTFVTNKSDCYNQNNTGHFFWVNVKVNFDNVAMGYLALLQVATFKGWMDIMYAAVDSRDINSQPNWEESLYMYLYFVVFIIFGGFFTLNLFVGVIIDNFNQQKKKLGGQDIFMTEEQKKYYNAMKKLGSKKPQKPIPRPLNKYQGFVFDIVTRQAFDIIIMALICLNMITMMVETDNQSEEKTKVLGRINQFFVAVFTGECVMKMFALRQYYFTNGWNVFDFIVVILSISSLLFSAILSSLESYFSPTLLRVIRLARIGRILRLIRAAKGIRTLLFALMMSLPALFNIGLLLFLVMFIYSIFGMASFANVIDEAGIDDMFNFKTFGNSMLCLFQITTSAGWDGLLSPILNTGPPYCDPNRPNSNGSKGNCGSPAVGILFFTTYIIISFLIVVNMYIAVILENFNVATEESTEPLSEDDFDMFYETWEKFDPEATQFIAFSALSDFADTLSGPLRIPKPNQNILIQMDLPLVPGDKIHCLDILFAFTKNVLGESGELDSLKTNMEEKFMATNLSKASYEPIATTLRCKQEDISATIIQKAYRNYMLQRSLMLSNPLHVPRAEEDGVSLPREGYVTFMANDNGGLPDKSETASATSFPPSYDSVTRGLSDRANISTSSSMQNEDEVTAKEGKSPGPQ
Sequence of Cytochrome P450 3A4 (P08684 whole entry): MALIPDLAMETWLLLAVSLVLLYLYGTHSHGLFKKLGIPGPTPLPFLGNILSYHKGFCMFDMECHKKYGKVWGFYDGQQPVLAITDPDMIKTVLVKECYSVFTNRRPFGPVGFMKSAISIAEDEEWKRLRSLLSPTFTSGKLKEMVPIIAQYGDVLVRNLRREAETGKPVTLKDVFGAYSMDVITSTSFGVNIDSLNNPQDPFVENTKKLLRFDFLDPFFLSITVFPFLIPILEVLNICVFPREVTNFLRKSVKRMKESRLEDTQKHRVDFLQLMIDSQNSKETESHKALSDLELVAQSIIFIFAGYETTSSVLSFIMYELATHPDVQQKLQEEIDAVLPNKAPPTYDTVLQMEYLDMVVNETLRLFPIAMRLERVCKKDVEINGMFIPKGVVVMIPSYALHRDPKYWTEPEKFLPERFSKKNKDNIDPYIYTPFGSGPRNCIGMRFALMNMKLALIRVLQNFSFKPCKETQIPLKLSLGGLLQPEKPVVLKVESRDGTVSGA

Take `COc1cc(F)ccc1Oc1ncc(C(F)(F)F)cc1C(=O)Nc1ccncc1`: the inhibition entry in [1] was “Active”. In addition, in [2], the solubility kinetic at 2 h turned out to be 19 µg/mL (≈ 46.6 µM). In addition, in series [3], the IC50 is 560 nM.
As for `Cc1cc(F)ccc1Oc1ncc(C(F)(F)F)cc1C(=O)Nc1cccc([S@](C)(=N)=O)c1`, in series [1], the inhibition result is “Active”. Besides, the bioavailability was found to be 39% in [4], 80% in series [7] and 61% in series [10]. The 50% inhibitory concentration (IC50) in series [5] was 35 nM; in series [11] it was above 30000 nM; in [12], 53 nM; in series [15] it was above 30000 nM; in series [23] it was 3040 nM; in series [29] it was 40 nM. In addition, in series [6], the remaining at 1 h was above 95%. The inhibition at 30 µM in series [8], in series [9], in series [14], in [19], in series [22] and in series [28] was below 25% in each case. In series [30], this compound showed an inhibition at 30 µM below 25%. The inhibition in [13] was determined as 35.5%; in series [27] it was 33.8%. The solubility kinetic at 2 h in [2] came to 65 µg/mL (≈ 139 µM). Moreover, the INH on Cytochrome P450 3A4 and at Cytochrome P450 1A2 was above 30 µM in each case. The Vd in [16] is 1.8 L/kg; in series [18], 1.9 L/kg; in [26], 1.2 L/kg. In series [17], the Kp at 1 h was 0.6. In addition, the fraction unbound in series [20] was determined as 0.14. In addition, the clearance in [21] stood at 7.7 mL/min/kg; in [25] it was 1.7 mL/min/kg; in [32] it was 6.1 mL/min/kg. Also, the apparent permeability coefficient (Papp) in series [24] turned out to be 18.1 ×10⁻⁶ cm/s. In series [31], the efflux ratio stood at 0.8.
Consider `Nc1ccc[n+]([O-])c1`, for which the Activity entry in series [33] is listed as “Non-toxic”.
As for `CS(=O)(=O)c1cccc(NC(=O)c2cc(C(F)(F)F)cnc2Oc2ccc(F)cc2F)c1`, the inhibition result in series [1] is “Active”. Moreover, in series [2], the solubility kinetic at 2 h is 0.3 µg/mL (≈ 0.635 µM). The half-maximal inhibitory concentration (IC50) in series [3] turned out to be 87 nM.
For the compound `Cc1cc(OC(F)(F)F)ccc1Oc1ncc(C(F)(F)F)cc1C(=O)Nc1cccc(S(C)(=O)=O)c1`, in [1], the inhibition entry is “Active”. The IC50 in series [5] turned out to be 35 nM. For the same compound, the solubility kinetic at 2 h in [2] came to 1.4 µg/mL (≈ 2.62 µM).
On to `O=C(Nc1ccc[n+]([O-])c1)c1cc(C(F)(F)F)cnc1Oc1ccc(F)cc1Cl`, for which the inhibition result in series [1] was “Active”. In addition, the half-inhibitory concentration (IC50) in [5] was 56 nM; in [11], 15000 nM; in series [23], 920 nM. In addition, the remaining at 1 h in [6] is 95%. Moreover, the solubility kinetic at 2 h in series [2] was found to be 0.084 µg/mL (≈ 0.196 µM). Also, the INH at Cytochrome P450 3A4 and at Cytochrome P450 1A2 was above 30 µM each time. In [20], the free fraction (fraction unbound) amounted to 0.1. Also, the Activity result in series [33] was “Non-toxic”. Further, the clearance in series [32] stood at 3.3 mL/min/kg.
With `CN=S(C)(=O)c1cccc(NC(=O)c2cc(C(F)(F)F)cnc2Oc2ccc(F)cc2OC)c1` (stereo not drawn), the inhibition result in series [1] is “Active”. Moreover, the half-inhibitory concentration (IC50) in series [5] turned out to be 68 nM; in series [3], 69 nM. Besides, the solubility kinetic at 2 h in series [2] was 27 µg/mL (≈ 54.3 µM).
